The target of test [1] is T1, human stromelysin (MMP-3) (Homo sapiens, UniProt P08254).
T1 construct: catalytic domains of human stromelysin and of neutrophil collagenase; made in house
Description: inhibition of the catalytic domain of human stromelysin (MMP-3), fluorogenic substrate. In kind it is biochemical. On the procedure:
(§1) Preparation and determination of the enzymatic activity of the catalytic domains of human stromelysin and of neutrophil collagenase.
(§2) The two enzymes--stromelysin (MMP-3) and neutrophil collagenase (MMP-8)--were prepared according to Ye et al., Biochemistry, vol. […] To measure the enzyme activity or the enzyme inhibitor action, 70 μl of buffer solution and 10 μl of enzyme solution are incubated for 15 minutes with 10 μl of a 10% strength (v/v) aqueous dimethyl sulfoxide solution, which optionally contains the enzyme inhibitor.
(§3) The buffer solution contains 0.05% Brij (Sigma, Deisenhofen, Germany) and also 0.1 mol/l tris/HCl, 0.1 mol/l NaCl, 0.01 mol/l CaCl2 and 0.1 mol/l piperazine-N,N'-bis[2-ethanesulfonic acid] (pH=6.5). The enzyme solution contains 5 μg/ml of one of the enzyme domains prepared according to Ye et al. The substrate solution contains 1 mmol/l of the fluorogen ic substrate (7-methoxycoumarin4-yl)acetyl-Pro-Leu-Gly-Leu-3-(2',4'-dinitrophenyl)-L-2,3-diaminopropionyl-Ala-Arg-NH2 (Bachem, Heidelberg, Germany).
(§4) The enzyme activity is shown as the extinction increase/minute.

Test [2] deals with neutrophil collagenase (MMP-8). Description: inhibition of the catalytic domain of neutrophil collagenase (MMP-8), fluorogenic substrate. In kind it is biochemical, human. To be noted: fluorescence 328 nm (ex)/393 nm (em), pH=6.5, 15 min preincubation. On the procedure:
as §1, §2, §3, §4

As usually defined, the IC50 is the concentration needed to halve the response being measured. Low readings indicate inhibition by little substance, high ones a need for much substance.

T1 sequence (P08254 100-273 limits assumed): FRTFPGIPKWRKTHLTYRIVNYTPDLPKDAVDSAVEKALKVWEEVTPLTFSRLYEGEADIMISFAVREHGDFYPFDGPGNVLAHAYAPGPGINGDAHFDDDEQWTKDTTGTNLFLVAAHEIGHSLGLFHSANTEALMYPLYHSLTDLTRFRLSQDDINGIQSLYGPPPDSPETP

In test [1], `COc1ccc(S(=O)(=O)N2Cc3cc(N)ccc3C[C@@H]2C(=O)NO)cc1` [Example 10, 2-(4-Methoxybenzenesulfonyl)-7-amino-1,2,3,4-tetrahydroisoquinoline-(R)-3-(N-hydroxy)carboxamide] came in with an IC50 of 10 nM.

Take `COc1ccc(S(=O)(=O)N2Cc3cc(NC(=O)OC(C)(C)C)ccc3C[C@@H]2C(=O)NO)cc1` [Example 11]: the IC50 came to 20 nM in test [1] and 3 nM in test [2].

`O=C(O)[C@H]1Cc2ccc([N+](=O)[O-])cc2CN1S(=O)(=O)c1ccc(-c2ccc(Cl)cc2)cc1` [Example 15] showed an IC50 in test [2] of 30 nM.

In test [2], `O=C(O)[C@H]1Cc2cc([N+](=O)[O-])ccc2CN1S(=O)(=O)c1ccc(-c2ccc(Cl)cc2)cc1` [Example 16] had an IC50 of 20 nM.

On to `O=C(O)[C@H]1Cc2ccc([N+](=O)[O-])cc2CN1S(=O)(=O)c1ccc(-c2ccc(F)cc2)cc1` [Example 17], for which the IC50 in test [2] came out at 40 nM.

In test [2], `O=C(O)[C@H]1Cc2cc([N+](=O)[O-])ccc2CN1S(=O)(=O)c1ccc(-c2ccc(F)cc2)cc1` [Example 18] returned a 50% inhibitory concentration (IC50) of 20 nM.

Consider `CC(C)(C)OC(=O)Nc1ccc2c(c1)CN(S(=O)(=O)c1ccc(-c3ccc(F)cc3)cc1)[C@@H](C(=O)O)C2` [Example 20], for which the IC50 stood at 2000 nM in test [1] and 100 nM in test [2].

Take `Nc1ccc2c(c1)C[C@H](C(=O)O)N(S(=O)(=O)c1ccc(-c3ccc(F)cc3)cc1)C2` [Example 21]: the half-maximal inhibitory concentration (IC50) in test [1] was determined as 200 nM; in test [2], 8 nM.

For `Nc1ccc2c(c1)CN(S(=O)(=O)c1ccc(-c3ccc(F)cc3)cc1)[C@@H](C(=O)O)C2` [Example 22], the 50% inhibitory concentration (IC50) in test [1] was determined as 300 nM; in test [2], 8 nM.

`C[C@H](NC(=O)OCc1ccccc1)C(=O)Nc1ccc2c(c1)CN(S(=O)(=O)c1ccc(-c3ccc(Cl)cc3)cc1)[C@@H](C(=O)O)C2` [Example 24]: the values for the IC50 in test [1] and in test [2] were 300 nM and 60 nM, respectively.

For the compound `CC(N)C(=O)Nc1ccc2c(c1)CN(S(=O)(=O)c1ccc(-c3ccc(Cl)cc3)cc1)[C@@H](C(=O)O)C2` (some centres unmarked) [Example 25], the IC50 in test [1] stood at 200 nM; in test [2], 10 nM.

In the case of `CC(C)(C)OC(=O)Nc1ccc2c(c1)CN(S(=O)(=O)c1ccc(-c3ccc(F)cc3)cc1)[C@@H](C(=O)NO)C2` [Example 27], the 50% inhibitory concentration (IC50) in test [1] amounted to 100 nM; in test [2], 10 nM.

For the compound `Nc1ccc2c(c1)CN(S(=O)(=O)c1ccc(-c3ccc(F)cc3)cc1)[C@@H](C(=O)NO)C2` [Example 28], the IC50 worked out at 20 nM in test [1] and 2 nM in test [2].

Regarding `COc1ccc(S(=O)(=O)N2Cc3cc(NC(=O)[C@H](C)N)ccc3C[C@@H]2C(=O)NO)cc1` [Example 30], the IC50 in test [1] stood at 30 nM.

With `COc1ccc(S(=O)(=O)N2Cc3cc(NC(=O)CCC(=O)O)ccc3C[C@@H]2C(=O)NO)cc1` [Example 31], the IC50 was determined as 20 nM in test [1] and 4 nM in test [2].

In the case of `COc1ccc(S(=O)(=O)N2Cc3cc(NC(=O)[C@H](CC(=O)OC(C)(C)C)NC(=O)OCc4ccccc4)ccc3C[C@@H]2C(=O)NO)cc1` [Example 32], the results for the IC50 in test [1] and in test [2] were 400 nM and 10 nM, respectively.

The values above are taken from US5962471A, “Substituted 6- and 7-aminotetrahydroisoquinolinecarboxylic acids” (Hoechst Aktiengesellschaft, priority 1997, dated 1999).
